Laboratory results: the NIST ThermoML archive (doi:10.1016/j.tca.2012.07.024)
± gives the expanded uncertainty stated by the source.

Experiment: xn = mol fraction of the nth substance listed
Details: Liquid, Vibrating tube method, x1 = 0.33

C[N+](C)(C)CCO.[Cl-] [choline chloride] + OCCO showed a mass density (298.15 K, 100 kPa) of 1117.4 ± 2.4 kg/m3, a mass density (298.15 K, 5000 kPa) of 1119 ± 2.5 kg/m3 and a mass density (298.15 K, 10000 kPa) of 1120.6 ± 2.5 kg/m3. It also gave a mass density (298.15 K, 15000 kPa) of 1122.1 ± 2.5 kg/m3, a mass density (298.15 K, 20000 kPa) of 1123.6 ± 2.5 kg/m3 and a mass density (298.15 K, 25000 kPa) of 1125.1 ± 2.5 kg/m3. It also gave a mass density (298.15 K, 30000 kPa) of 1126.6 ± 2.5 kg/m3, a mass density (298.15 K, 35000 kPa) of 1128.1 ± 2.5 kg/m3 and a mass density (298.15 K, 40000 kPa) of 1129.6 ± 2.6 kg/m3. The mass density (298.15 K, 45000 kPa) was 1131 ± 2.6 kg/m3, the mass density (298.15 K, 50000 kPa) was 1132.4 ± 2.6 kg/m3 and the mass density (303.15 K, 100 kPa) was 1114.5 ± 2.4 kg/m3. The mass density (303.15 K, 5000 kPa) was 1116.1 ± 2.5 kg/m3, the mass density (303.15 K, 10000 kPa) was 1117.7 ± 2.5 kg/m3 and the mass density (303.15 K, 15000 kPa) was 1119.3 ± 2.5 kg/m3. The mass density (303.15 K, 20000 kPa) was 1120.8 ± 2.5 kg/m3, the mass density (303.15 K, 25000 kPa) was 1122.3 ± 2.5 kg/m3 and the mass density (303.15 K, 30000 kPa) was 1123.8 ± 2.5 kg/m3. The mass density (303.15 K, 35000 kPa) was 1125.3 ± 2.5 kg/m3, the mass density (303.15 K, 40000 kPa) was 1126.8 ± 2.5 kg/m3 and the mass density (303.15 K, 45000 kPa) was 1128.2 ± 2.6 kg/m3. The mass density (303.15 K, 50000 kPa) was 1129.6 ± 2.6 kg/m3, the mass density (308.15 K, 100 kPa) was 1111.6 ± 2.4 kg/m3 and the mass density (308.15 K, 5000 kPa) was 1113.2 ± 2.4 kg/m3. For the same compound, the mass density (308.15 K, 10000 kPa) was 1114.8 ± 2.5 kg/m3, the mass density (308.15 K, 15000 kPa) was 1116.4 ± 2.5 kg/m3 and the mass density (308.15 K, 20000 kPa) was 1117.9 ± 2.5 kg/m3. For the same compound, the mass density (308.15 K, 25000 kPa) was 1119.5 ± 2.5 kg/m3, the mass density (308.15 K, 30000 kPa) was 1121 ± 2.5 kg/m3 and the mass density (308.15 K, 35000 kPa) was 1122.5 ± 2.5 kg/m3. The mass density (308.15 K, 40000 kPa) was 1124 ± 2.5 kg/m3, the mass density (308.15 K, 45000 kPa) was 1125.5 ± 2.6 kg/m3 and the mass density (308.15 K, 50000 kPa) was 1126.9 ± 2.6 kg/m3. The mass density (313.15 K, 100 kPa) was 1108.7 ± 2.4 kg/m3, the mass density (313.15 K, 5000 kPa) was 1110.3 ± 2.4 kg/m3 and the mass density (313.15 K, 10000 kPa) was 1111.9 ± 2.4 kg/m3. The mass density (313.15 K, 15000 kPa) was 1113.5 ± 2.5 kg/m3, the mass density (313.15 K, 20000 kPa) was 1115.1 ± 2.5 kg/m3 and the mass density (313.15 K, 25000 kPa) was 1116.6 ± 2.5 kg/m3. For the same compound, the mass density (313.15 K, 30000 kPa) was 1118.2 ± 2.5 kg/m3, the mass density (313.15 K, 35000 kPa) was 1119.7 ± 2.5 kg/m3 and the mass density (313.15 K, 40000 kPa) was 1121.2 ± 2.5 kg/m3. The mass density (313.15 K, 45000 kPa) was 1122.7 ± 2.5 kg/m3, the mass density (313.15 K, 50000 kPa) was 1124.1 ± 2.6 kg/m3 and the mass density (318.15 K, 100 kPa) was 1105.9 ± 2.4 kg/m3. For the same compound, the mass density (318.15 K, 5000 kPa) was 1107.5 ± 2.4 kg/m3, the mass density (318.15 K, 10000 kPa) was 1109.1 ± 2.4 kg/m3 and the mass density (318.15 K, 15000 kPa) was 1110.7 ± 2.5 kg/m3. For the same compound, the mass density (318.15 K, 20000 kPa) was 1112.3 ± 2.5 kg/m3, the mass density (318.15 K, 25000 kPa) was 1113.8 ± 2.5 kg/m3 and the mass density (318.15 K, 30000 kPa) was 1115.4 ± 2.5 kg/m3. It also gave a mass density (318.15 K, 35000 kPa) of 1116.9 ± 2.5 kg/m3, a mass density (318.15 K, 40000 kPa) of 1118.4 ± 2.5 kg/m3 and a mass density (318.15 K, 45000 kPa) of 1119.9 ± 2.5 kg/m3. For the same compound, the mass density (318.15 K, 50000 kPa) was 1121.4 ± 2.6 kg/m3, the mass density (323.15 K, 100 kPa) was 1103 ± 2.4 kg/m3 and the mass density (323.15 K, 5000 kPa) was 1104.7 ± 2.4 kg/m3. The mass density (323.15 K, 10000 kPa) was 1106.3 ± 2.4 kg/m3, the mass density (323.15 K, 15000 kPa) was 1107.9 ± 2.4 kg/m3 and the mass density (323.15 K, 20000 kPa) was 1109.5 ± 2.5 kg/m3. It also gave a mass density (323.15 K, 25000 kPa) of 1111 ± 2.5 kg/m3, a mass density (323.15 K, 30000 kPa) of 1112.6 ± 2.5 kg/m3 and a mass density (323.15 K, 35000 kPa) of 1114.1 ± 2.5 kg/m3. It also gave a mass density (323.15 K, 40000 kPa) of 1115.7 ± 2.5 kg/m3, a mass density (323.15 K, 45000 kPa) of 1117.2 ± 2.5 kg/m3 and a mass density (323.15 K, 50000 kPa) of 1118.7 ± 2.5 kg/m3.
